In US10377770B2 (Novartis AG, priority 2015, dated 2019) one finds IC50 data, which are given here for 25 compounds.

The test concerns the target C-Raf FL (full length CRAF with Y340E and Y341E activating mutations, co-expressed with h14-3-3 zeta) (Homo sapiens (Human), UniProt P04049, Y340E/Y341E). Nature of the test: In vitro Raf activity determination, AlphaScreen p-MEK readout, c-Raf (C-Raf FL). Format: biochemical. The note with it: c-Raf approximately 4 nM, ATP 1 μM, pre-incubation 60 minutes, reaction 1 hour. A digest of the protocol:
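Phosphorylation of kinase-dead biotinylated MEK1 (~10 nM) by C-Raf FL (~4 nM) read by AlphaScreen luminescence with anti-phospho-MEK1/2 after EDTA stop. ATP was 1 μM, with a 1 h reaction at room temperature. Compounds were pre-incubated with enzyme and substrate for 60 min in Tris/MgCl2 buffer, pH 7.5.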
Background: Bead proximity is the source of the signal in Alpha formats.

Sequence of C-Raf FL (full length CRAF with Y340E and Y341E activating mutations, co-expressed with h14-3-3 zeta) (P04049 whole entry Y340E/Y341E): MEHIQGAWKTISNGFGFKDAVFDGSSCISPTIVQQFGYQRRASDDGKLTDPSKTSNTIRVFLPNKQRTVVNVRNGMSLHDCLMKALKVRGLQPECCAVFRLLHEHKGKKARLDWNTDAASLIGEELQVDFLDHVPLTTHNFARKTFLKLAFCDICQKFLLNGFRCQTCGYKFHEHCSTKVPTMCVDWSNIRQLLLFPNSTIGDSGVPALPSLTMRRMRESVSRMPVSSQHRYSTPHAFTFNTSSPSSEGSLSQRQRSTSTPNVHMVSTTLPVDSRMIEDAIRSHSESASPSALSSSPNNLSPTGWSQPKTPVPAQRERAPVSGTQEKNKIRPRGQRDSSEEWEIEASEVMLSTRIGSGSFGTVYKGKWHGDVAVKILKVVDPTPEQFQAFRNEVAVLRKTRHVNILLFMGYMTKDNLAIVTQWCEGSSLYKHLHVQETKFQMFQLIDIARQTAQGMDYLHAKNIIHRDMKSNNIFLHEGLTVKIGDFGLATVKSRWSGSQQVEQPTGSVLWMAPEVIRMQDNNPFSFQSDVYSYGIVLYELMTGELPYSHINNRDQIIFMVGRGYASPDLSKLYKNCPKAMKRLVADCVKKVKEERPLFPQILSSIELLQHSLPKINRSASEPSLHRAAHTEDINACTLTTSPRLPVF
Sequence of C-Raf FL (full length CRAF with Y340E and Y341E activating mutations, co-expressed with h14-3-3 zeta) (P63104 whole entry partner): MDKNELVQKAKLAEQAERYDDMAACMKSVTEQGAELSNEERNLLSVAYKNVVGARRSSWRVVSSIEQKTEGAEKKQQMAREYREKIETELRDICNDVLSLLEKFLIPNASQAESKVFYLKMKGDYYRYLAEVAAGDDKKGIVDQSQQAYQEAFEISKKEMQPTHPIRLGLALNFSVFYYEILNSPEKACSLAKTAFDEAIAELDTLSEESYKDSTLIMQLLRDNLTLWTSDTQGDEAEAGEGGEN

A word on the IC50: it is the point on the concentration scale where inhibition reaches its midpoint. On to `Cc1ccc(NC(=O)c2ccnc(C(C)(F)F)c2)cc1-c1ccc2c(c1)N1CCOC[C@H]1[C@](CO)(CF)C2` [Example 410, 2-(1,1-difluoroethyl)-N-(3-((4aR,5R)-5-(fluoromethyl)-5-(hydroxymethyl)-1,2,4,4a,5,6-hexahydro-[1,4]oxazino[4,3-a]quinolin-9-yl)-4-methylphenyl)isonicotinamide], for which the IC50 stood at 0.5 nM.
The value for `Cc1ccc(NC(=O)c2ccnc(C(C)(F)F)c2)cc1-c1cnc2c(c1)N1CCOC[C@H]1[C@@H](CO)C2` [Example 492, 2-(1,1-difluoroethyl)-N-(3-((4aR,5S)-5-(hydroxymethyl)-1,2,4,4a,5,6-hexahydro-[1,4]oxazino[4,3-a][1,5]naphthyridin-9-yl)-4-methylphenyl)iso-nicotinamide] was 0.2 nM; that for `Cc1ncc(NC(=O)c2cccc(C(F)(F)F)c2)cc1-c1cnc2c(c1)N1CCOC[C@@H]1[C@H](C(C)(C)O)C2` [Example 449, N-(5-((4aS,5R)-5-(2-hydroxypropan-2-yl)-1,2,4,4a,5,6-hexahydro-[1,4]oxazino[4,3-a] [1,5]naphthyridin-9-yl)-6-methylpyridin-3-yl)-3-(trifluoro-methyl)benzamide] was 0.7 nM.
As to `Cc1ccc(NC(=O)c2cnnc(C(F)(F)F)c2)cc1-c1ccc2c(c1)N1CCOC[C@@H]1[C@](F)(CO)C2` [Example 403, N-(3-((4aR,5S)-5-fluoro-5-(hydroxymethyl)-1,2,4,4a,5,6-hexahydro-[1,4]oxazino[4,3-a]quinolin-9-yl)-4-methylphenyl)-6-(trifluoromethyl)pyridazine-4-carboxamide], the IC50 is 0.1 nM.
As to `Cc1ccc(NC(=O)c2ccnc(C(F)(F)F)c2)cc1-c1ccc2c(c1)N1CCOCC1CC2(C)O` (racemic) [Example 22, (rac)-N-(3-(6-hydroxy-6-methyl-1,2,4,4a,5,6-hexahydro-[1,4]oxazino[4,3-a]quinolin-9-yl)-4-methylphenyl)-2-(trifluoromethyl)isonicotinamide], the IC50 turned out to be 0.23 nM.
`Cc1ncc(NC(=O)c2cccc(C(F)(F)F)c2)cc1-c1ccc2c(c1)N1CCOC[C@H]1[C@](F)(CO)C2` [Example 383, N-(5-((4aS,5S)-5-fluoro-5-(hydroxymethyl)-1,2,4,4a,5,6-hexahydro-[1,4]oxazino[4,3-a]quinolin-9-yl)-6-methylpyridin-3-yl)-3(trifluoromethyl)benzamide] gave an IC50 of 1 nM.
The value for `CCN1C(=O)[C@H]2COCC[C@@H]2c2cc(-c3cc(NC(=O)c4ccnc(C(F)(F)F)c4)ccc3C)cnc21` [Example 236, N-(3-((4aR,10bS)-6-ethyl-5-oxo-1,4,4a,5,6,10b-hexahydro-2H-pyrano[3,4-c][1,8]naphthyridin-9-yl)-4-methylphenyl)-2-(trifluoromethyl)isonicotinamide] was 0.3 nM; that for `Cc1ccc(NC(=O)c2cc(N)nc(C(F)(F)F)c2)cc1-c1ccc2c(c1)N1CCOC[C@H]1[C@](F)(CO)C2` [Example 390, 2-amino-N-(3-((4aS,5S)-5-fluoro-5-(hydroxymethyl)-1,2,4,4a,5,6-hexahydro-[1,4]oxazino[4,3-a]quinolin-9-yl)-4-methylphenyl)-6-(trifluoromethyl)isonicotinamide] was 1.7 nM; that for `Cc1ccc(NC(=O)c2ccnc(C(C)(F)F)c2)cc1-c1cnc2c(c1)N1CCOCC1CC2O` (racemic) [Example 107, rac-cis-2-(1,1-Difluoroethyl)-N-(3-(6-hydroxy-1,2,4,4a,5,6-hexahydro-[1,4]oxazino[4,3-a][1,5]naphthyridin-n-9-yl)-4-methylphenyl)isonicotinamide] was 0.019 nM.
The value for `CC(=O)NC1CC2COCCN2c2cc(-c3cc(NC(=O)c4ccnc(C(F)(F)F)c4)ccc3C)ccc21` (racemic) [Example 29, N-(3-(6-acetamido-1,2,4,4a,5,6-hexahydro-[1,4]oxazino[4,3-a]quinolin-9-yl)-4-methylphenyl)-2-(trifluoromethyl)isonicotinamide] was 0.17 nM; that for `Cc1ccc(NC(=O)c2ccnc(C(F)(F)F)c2)cc1-c1cc(F)c2c(c1)N1CCOC[C@H]1[C@](F)(CO)C2` [Example 419] was 0.5 nM; that for `Cc1ccc(NC(=O)c2ccnc(C(C)(F)F)c2)cc1-c1ccc2c(c1)N1CCOC[C@@H]1[C@@](F)(CO)C2` [Example 81, 2-(1,1-difluoroethyl)-N-(3-((4aR,5R)-5-fluoro-5-(hydroxymethyl)-1,2,4,4a,5,6-hexahydro-[1,4]oxazino[4,3-a]quinolin-9-yl)-4-methylphenyl)isonicotinamide] was 0.081 nM.
Consider `Cc1ccc(NC(=O)c2ccnc(C(C)(F)F)c2)cc1-c1ccc2c(c1)N1CCOCC1CC2O` (racemic) [Example 16, (rac)-2-(1,1-difluoroethyl)-N-(3-(6-hydroxy-1,2,4,4a,5,6-hexahydro-[1,4]oxazino[4,3-a]quinolin-9-yl)-4-methylphenyl)isonicotinamide], for which inhibition was half-maximal at 0.055 nM (IC50).
The same measure for `Cc1ccc(NC(=O)c2ccnc(C(C)(C)F)c2)cc1-c1ccc2c(c1)N1CCOC[C@@H]1[C@](F)(CO)C2` [Example 400, N-(3-((4aR,5S)-5-fluoro-5-(hydroxymethyl)-1,2,4,4a,5,6-hexahydro-[1,4]oxazino[4,3-a]quinolin-9-yl)-4-methylphenyl)-2-(2-fluoropropan-2-yl)isonicotinamide]: 0.1 nM.
The same measure for `CC[C@@H]1Oc2nnc(-c3cc(NC(=O)c4ccnc(C(C)(F)F)c4)ccc3C)cc2N2CCOC[C@H]12` [Example 532, 2-(1,1-Difluoroethyl)-N-(3-((6S,6aR)-6-ethyl-6a,7,9,10-tetrahydro-6H-[1,4]oxazino[4,3-d]pyridazino[3,4-b][1,4]oxazin-2-yl)-4-methylphenyl)isonicotinamide]: 0.2 nM.
The compound `CCN1C(=O)[C@@H]2COCC[C@H]2c2cc(-c3cc(NC(=O)c4ccnc(C(F)(F)F)c4)ccc3C)cnc21` [Example 311, N-(3-((4aS, 10bR)-6-ethyl-5-oxo-1,4,4a,5,6,10b-hexahydro-2H-pyrano[3,4 - c][1,8]naphthyridin-9-yl)-4-methylphenyl)-2-(trifluoromethyl) isonicotinamide] gave an IC50 of 0.1 nM.
`CC[C@@H]1Oc2nnc(-c3cc(NC(=O)c4ccnc(C(C)(F)F)c4)ccc3C)cc2N2CCOC[C@@H]12` [Example 534, 2-(1,1-difluoroethyl)-N-(3-((6S,6aS)-6-ethyl-6a,7,9,10-tetrahydro-6H-[1,4]oxazino[4,3-d]pyridazino[3,4-b][1,4]oxazin-2-yl)-4-methylphenyl)isonicotinamide] displayed an IC50 of 0.1 nM.
The same measure for `Cc1ccc(NC(=O)c2ccnc(C(F)(F)F)c2)cc1-c1ccc2c(c1)N1CCOC[C@H]1[C@](F)(CO)C2` [Example 382, N-(3-((4aS,5S)-5-fluoro-5-(hydroxymethyl)-1,2,4,4a,5,6-hexahydro-[1,4]oxazino[4,3-a]quinolin-9-yl)-4-methylphenyl)-2-(trifluoromethyl)isonicotinamide]: 0.2 nM; for `CC(=O)N[C@H]1c2ncc(-c3cc(NC(=O)c4ccnc(C(F)(F)F)c4)ccc3C)cc2N2CCOC[C@H]2C1(C)C` [Example 529, N-(3-((4aR,6R)-6-acetamido-5,5-dimethyl-1,2,4,4a,5,6-hexahydro-[1,4]oxazino[4,3-a][1,5]naphthyridin-9-yl)-4-methylphenyl)-2-(trifluoromethyl)isonicotinamide]: 2.3 nM; for `Cc1ccc(NC(=O)c2ccnc(C(C)(F)F)c2)cc1-c1cnc2c(c1)N1CCOC[C@@H]1C[C@@H]2O` [Example 109, 2-(1,1-difluoroethyl)-N-(3-((4aS,6S)-6-hydroxy-1,2,4,4a,5,6-hexahydro-[1,4]oxazino[4,3-a][1,5]naphthyridin-n-9-yl)-4-methylphenyl)isonicotinamide]: 0.0057 nM.
Compound `Cc1ccc(NC(=O)c2ccnc(C(C)(C)F)c2)cc1-c1cnc2c(c1)N1CCOC[C@H]1C[C@H]2O` [Example 142, 2-(2-fluoropropan-2-yl)-N-(3-((4aR,6R)-6-hydroxy-1,2,4,4a,5,6-hexahydro-[1,4]oxazino[4,3-a][1,5]naphthyridin-9-yl)-4-methylphenyl)isonicotinamide] displayed an IC50 of 0.021 nM.
In the case of `Cc1ccc(NC(=O)c2ccnc(C(F)(F)F)c2)cc1-c1cnc2c(c1)C1C3COCC3C1C(=O)N2CCO` (stereo not shown) [Example 281, N-(3-(5-(2-hydroxyethyl)-6-oxo-5,6,6a,6b,7,9,9a,9b-octahydrofuro[3′,4′: 3,4]cyclobuta[1,2-c][1,8]naphthyridin-2-yl)--4-methylphenyl)-2-(trifluoromethyl) isonicotinamide], it took 0.2 nM to reach half-maximal inhibition (IC50).
Turning to `Cc1ccc(NC(=O)c2ccnc(C(C)(C)F)c2)cc1-c1cc2c(cc1F)C[C@](F)(CO)[C@H]1COCCN21` [Example 478, N-(3-((4aR,5R)-5,8-difluoro-5-(hydroxymethyl)-1,2,4,4a,5,6-hexahydro-[1,4]oxazino[4,3-a]quinolin-9-yl)-4-methylphenyl)-2-(2-fluoropropan-2-yl)isonicotinamide], 0.2 nM corresponded to half-maximal inhibition (IC50).
The compound `Cc1ccc(NC(=O)c2ccnc(C(F)(F)F)c2)cc1-c1cnc2c(c1)N1CCOC[C@H]1C[C@@H]2C` [Example 521, N-(4-methyl-3-((4aR,6S)-6-methyl-1,2,4,4a,5,6-hexahydro-[1,4]oxazino[4,3-a][1,5]naph-thyridin-9-yl)phenyl)-2-(trifluoromethyl)iso-nicotinamide] gave an IC50 of 0.5 nM.
Compound `Cc1ccc(NC(=O)c2ccnc(C(C)(F)F)c2)cc1-c1ccc2c(c1)N1CCOC[C@@H]1C1(COC1)C2` [Example 58, (S)-2-(1,1-difluoroethyl)-N-(4-methyl-3-(1′,2′,4′,4a′-tetrahydro-6′H-spiro[oxetane-3,5′-[1,4]oxazino[4,3-a]quinolin]-9′-yl)phenyl)isonicotinamide] had an IC50 of 0.01 nM.
